According to patent US20060004029A1, “Nitrogen-containing aromatic derivatives” (priority 2003, published 2006):

target: T1, FGFR1 (Homo sapiens, UniProt P11362); assay: Inhibition against receptor tyrosine kinase activity (HTRF), FGFR1; assay type: biochemical; conditions: His6-FGFR1 cytoplasmic domain, biotin-poly(GT), HTRF; read-out: FGFR1 kinase IC50
T1 construct: made in house; host or cells: Sf9 insect cells, baculovirus (pFastBacHis), by the same method as VEGFR2
Source text: This assay is used to determine inhibition of a test substance on tyrosine kinase activity. DNA coding for the cytoplasmic domain of VEGFR2 is obtained by total cDNA synthesis (Edwards M, International Biotechnology Lab 5(3), 19-25, 1987) or by cloning. Expression in an appropriate expression system can produce a polypeptide with tyrosine kinase activity. […] For VEGFR2 (GenBank Accession No. L04947), the 1.7 kb DNA fragment described by Terman et al. (Oncogene, 6(9), 1677-1683, 1991), coding for the cytoplasmic domain, beginning with lysine 791 and including the termination codon, was isolated from a human placental cDNA library (purchased from Clontech Laboratories, Inc.) and cloned in a Baculovirus expression vector (pFastBacHis, purchased from GIBCO BRL). The recombinant construct was transfected into insect cells (Spondoptea frugiperda9 (Sf9)) to prepare a recombinant Baculovirus. (Instructions for preparation and use of recombinant Baculovirus may be found in standard texts, such as “Bac-To-Bac Baculovirus Expression System” (GIBCO BRL).) The cytoplasmic fragment starting from lysine 398 (FGFR1, GenBank Accession No. X52833), the cytoplasmic fragment starting from lysine 558 (PDGFRβ, GenBank Accession No. M21616) or the cytoplasmic fragment starting from lysine 974 (HGFR, GenBank Accession No. J02958) may be cloned and expressed by the same method for use in assays for other tyrosine kinases. EGFR was purchased from Sigma Co. (Product No. E-2645).
For expression of the VEGFR2 tyrosine kinase, Sf9 cells were infected with the VEGFR2 recombinant virus and collected after 48 hours. The collected cells were rinsed with ice-cooled phosphate buffered saline (PBS) and then resuspended using 20 ml of ice-cooled Lysis Buffer (50 mM Tris-HCl (pH 8.5), 5 mM 2-mercaptoethanol, 100 mM KCl, 1 mM phenylmethylsulfonyl fluoride, 1% (v/v) NP-40) per 1.5×10^8 cells. The suspension was centrifuged at 12,000 rpm for 30 minutes at 4° C. and the supernatant was obtained. The supernatant was added to a Ni-NTA agarose column (3 ml, purchased from Qiagen) equilibrated with Buffer A {20 mM Tris-HCl (pH 8.5), 5 mM 2-mercaptoethanol, 500 mM KCl, 20 mM imidazole, 10% (v/v) glycerol}. The column was washed with 30 ml of Buffer A, and then with 6 ml of Buffer B {20 mM Tris-HCl (pH 8.5), 5 mM 2-mercaptoethanol, 1M KCl, 10% (v/v) glycerol}, and finally with 6 ml of Buffer A. After washing, it was eluted with 6 ml of Buffer C {20 mM Tris-HCl (pH 8.5), 5 mM 2-mercaptoethanol, 100 mM KCl, 100 mM imidazole, 10% (v/v) glycerol}. The eluate was placed on a dialysis membrane (purchased from Spectrum Laboratories) and dialyzed with a dialysis buffer {20 mM Tris-HCl (pH 7.5), 10% (v/v) glycerol, 1 mM dithiothreitol, 0.1 mM Na3VO4, 0.1 mM EGTA}. After dialysis, it was supplied for SDS-electrophoresis, and the recombinant protein (His6-VEGFR2, cytoplasmic domain of VEGFR2 fused with 6 histidine residues at the N-terminus) detected at a molecular weight of approximately 100 kDa with Coumassie Brilliant Blue staining was assayed using BSA (bovine serum albumin, purchased from Sigma Co.) as the standard substance, and stored at −80° C. until use. Using the same method for the cytoplasmic domains of FGFR1, PDGFRβ and HGFR yielded respective recombinant proteins fused with 6 histidine residues at the N-terminal (His6-FGFR1, His6-PDGFRβ or His6-HGFR).
The tyrosine kinase reaction was conducted as follows. In the case of VEGFR2, for example, 10 μl of a kinase reaction solution {200 mM Hepes (pH 7.4), 80 mM MgCl2, 16 mM MnCl2, 2 mM Na3VO4}, 250 ng of biotin-bound poly(Glu4:Tyr1) (biotin-poly(GT), purchased from CIS Diagnostics Co.) (6 μl of a 15-fold dilution with distilled water), 15 ng of His6-VEGFR2 (10 μl of a 240-fold dilution with 0.4% BSA solution) and the test substance dissolved in dimethyl sulfoxide (4 μl of a 100-fold dilution with 0.1% BSA solution) were added into each well of a 96-well round-bottom plate (NUNC Co., Product No. 163320), to a total of 30 μl. […]

T1 sequence (P11362 398-822 limits assumed): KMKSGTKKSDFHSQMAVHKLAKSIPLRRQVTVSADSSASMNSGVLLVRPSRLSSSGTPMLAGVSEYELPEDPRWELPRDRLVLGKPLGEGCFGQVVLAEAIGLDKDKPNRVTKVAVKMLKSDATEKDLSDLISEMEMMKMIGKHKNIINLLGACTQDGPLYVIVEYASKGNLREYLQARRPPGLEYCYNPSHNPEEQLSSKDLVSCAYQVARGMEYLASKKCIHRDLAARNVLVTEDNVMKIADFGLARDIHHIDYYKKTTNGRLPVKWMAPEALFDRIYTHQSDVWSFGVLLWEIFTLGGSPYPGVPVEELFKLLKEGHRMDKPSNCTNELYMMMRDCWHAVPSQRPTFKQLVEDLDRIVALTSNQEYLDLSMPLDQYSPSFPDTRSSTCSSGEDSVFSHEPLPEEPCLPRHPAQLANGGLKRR

SMILES	IC50 [nM]
CNC(=O)n1ccc2cc(Oc3ccnc(NC(=O)N4CCC(O)CC4)c3)ccc21 [Example 39, N1-Methyl-5-(2-((4-hydroxypiperidino)carbonyl)amino-4-pyridyl)oxy-1H-1-indolecarboxamide]	6.3
CNC(=O)n1ccc2cc(Oc3ccnc(NC(=O)N4CCC(C)(O)CC4)c3)ccc21 [Example 41, 5-(2-(((4-Hydroxy-4-methylpiperidin-1-yl)carbonyl)amino)pyridin-4-yloxy)-1H-1-indole-1-carboxylic acid methylamide]	3.2
CNC(=O)n1ccc2cc(Oc3ccnc(NC(=O)N4CCC(N5CCCC5)CC4)c3)ccc21 [Example 46, N1-Methyl-5-(2-(((4-(pyrrolidin-1-yl)piperidin-1-yl)carbonyl)amino)pyridin-4-yloxy)-1H-1-indolecarboxamide]	12
CNC(=O)n1ccc2cc(Oc3ccnc(NC(=O)N4CCC(N5CCCCC5)CC4)c3)ccc21 [Example 47, N1-Methyl-5-(2-(((4-(piperidin-1-yl)piperidin-1-yl)carbonyl)amino)pyridin-4-yloxy)-1H-1-indolecarboxamide]	21
CNC(=O)n1ccc2cc(Oc3ccnc(NC(=O)N4CCOCC4)c3)ccc21 [Example 53, N4-(4-(1-(Methylamino)carbonyl-1H-5-indolyl)oxy-2-pyridyl)-4-morpholinecarboxamide]	2.1
